Measurements: US11203565B2, “Ester compound and PIN1 inhibitor, inflammatory disease therapeutic, and colon cancer therapeutic in which said ester compound is used” (Hiroshima University, priority 2016, dated 2021)

Tests used:
NASH model mice = assay: Therapeutic experiment for NASH in MCDD-fed NASH model mice (Example 8); type: in vivo, mice (C57BL/6J); details: NASH mice fed MCDD 8 weeks, intraperitoneal 2.5 mg/kg/day 3 times a week
Description: In order to test the therapeutic effect of a compound of the present invention on non-alcoholic steatohepatitis (NASH), an animal experiment using NASH model mice was carried out.
The NASH model mice (hereinafter referred to as “NASH mice”) were prepared by feeding male individuals of laboratory mice (C57BL/6J) with methionine-choline-deficient diet (MCDD) for 8 weeks to allow accumulation of fat in the liver. The animal experiment was carried out for a group in which a compound of the present invention (H-31) was intraperitoneally administered 3 times a week at 2.5 mg/kg/day during the 8 weeks of the MCDD feeding period, and a group in which no administration was carried out. In addition, in order to provide control mice, male individuals of laboratory mice (C57BL/6J) were fed with normal diet for 8 weeks.
The results of measurement of the blood AST (GOT) level and the blood ALT (GPT) level in these mice are shown in FIGS. 8(A) and (B), respectively.

Pin1 = target: T1, Pin1 (Homo sapiens, UniProt Q13526); assay: Evaluation of inhibitory activity on function of Pin1: cell assay using degree of AMPK phosphorylation as index; type: cell-based; parameters: key to Pin1 inhibitory activity: −: Promotion of AMPK phosphorylation was not (or hardly) found.; +: Phosphorylation of AMPK was promoted, but the promotion was weaker than that by C1.; ++: Phosphorylation of AMPK was promoted to the same degree as in the case of C1.; +++: Phosphorylation of AMPK was promoted more strongly than in the case of C1; details: 293T cells
T1 construct: endogenous in cells; host or cells: 293T cells
T1 sequence (Q13526 whole entry): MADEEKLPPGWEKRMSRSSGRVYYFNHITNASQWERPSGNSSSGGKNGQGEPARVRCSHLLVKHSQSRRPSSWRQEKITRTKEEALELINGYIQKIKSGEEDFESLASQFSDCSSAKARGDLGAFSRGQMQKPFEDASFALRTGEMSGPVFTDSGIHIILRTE
Description: In order to evaluate the inhibitory activities of the compounds of the present invention synthesized in Example 2 on the function of Pin1, an assay using cells was carried out according to a method previously developed by the present inventors (Yusuke Nakatsu et al., Journal of Biological Chemistry, 2015, Vol. 290, No. 40, pp. 24255-24266), using as an index the degree of phosphorylation of AMPK (AMP-activated protein kinase), whose phosphorylation is known to be suppressed by Pin1.
Briefly, 293T cells were plated on a 24-well plate coated with collagen. Forty-eight hours later, each compound (100 μM) synthesized in the Example was added to the plate, and the plate was left to stand in an incubator for 30 minutes. Thereafter, 10 mM 2-DG was added to the plate, and, 1 hour later, each sample was collected using a buffer containing mercaptoethanol and SDS.
According to conventional methods, SDS-PAGE and blotting were carried out, and then blocking was carried out with 3% BSA for 1 hour. Thereafter, reaction was carried out at normal temperature for 1 hour with each of a pAMPK antibody (Cell signaling 1:2000, Can get signal solution 1: diluted by Toyobo) as a primary antibody, and an HRP-linked anti rabbit IgG (GE healthcare 1:4000, Can get signal solution 2: diluted by Toyobo) as a secondary antibody, to perform detection.
As a compound to be compared, C1: (R)-2-(5-(4-methoxyphenyl)-2-methylfuran-3-carboxamido)-3-(naphthalene-6-yl)propanoic acid, which is an already reported Pin1 inhibitor, was used.
In FIG. 3, “-” indicates the degree of phosphorylation of AMPK in a case where no Pin1 inhibitor was added, and “C1”, “H-30”, “H-31”, “H-32”, and “H-33” indicate the degrees of phosphorylation of AMPK in cases where the respective Pin1 inhibitors were added. […] The inhibitory activity on the function of Pin1 was rated as follows based on comparison with the degree of inhibition by C1.

colon cancer model mice = assay: Therapeutic experiment for colon cancer in AOM/DSS colon cancer model mice (Example 9); type: in vivo; details: oral 1.25 mg/kg/day 3 times a week from Day 6, Day 89, vs control
Description: On Day 1, azoxymethane (AOM) was intraperitoneally administered at 12 mg/kg to laboratory mice. Thereafter, from Day 6, a course of 5 days of oral administration of 3% dextran sulfate sodium (DSS) and a period of 16 days without administration of DSS was repeated 4 times to prepare colon cancer model mice having cancer caused by inflammation of the large intestine. A group in which a compound of the present invention (H-31) was administered and a group without administration of the compound of the present invention (control) were provided. In the group in which the compound of the present invention (H-31) was administered, oral administration was carried out 3 times a week at 1.25 mg/kg/day from Day 6.
On Day 89, the colon cancer model mice were dissected, and the number of colon cancer developed and the tumor area per colon cancer (total tumor area/number of tumors) were measured.

[1] = system: model animals of ulcerative colitis (DSS); assay: Comparison between oral and intraperitoneal administration in DSS mice (Example 5); type: in vivo; details: 1 mg/kg/day
Description: A compound whose therapeutic effect on ulcerative colitis could be confirmed in Example 4 (H-31) was studied on the difference in its effect depending on the administration method. […] In FIGS. 5(A) and (B), “normal” indicates a case where water was administered, and “DSS” indicates cases where DSS-containing water was administered. “non” indicates a case where no compound was administered, and “H-31” indicates a case where the compound synthesized in Example 2-7 was administered.

[2] = system: model animals of ulcerative colitis (3% DSS); assay: Therapeutic experiment using model animals of ulcerative colitis (Example 4); type: in vivo, C57BL6 mice; details: DSS mice, compound 1 mg/kg/day
Description: To C57BL6 mice of 8 weeks old, 3% DSS (dextran sulfate sodium)-containing water or water (control) was administered by allowing the mice to drink it for 7 days. For the mice to which DSS was administered, groups in which 5-ASA (compound name: 5-aminosalicylic acid; generic name: Mesalazine), which is a therapeutic agent for inflammatory bowel diseases, the compound synthesized in Example 2-7 (H-31), or the compound synthesized in Example 2-36 (H-179) was administered, and a group in which no compound was administered were provided. On Day 7 after the beginning of the administration, the body weight of each mouse was measured, and the large intestine was removed from the mouse, followed by carrying out histological study. […] In FIGS. 4(A) and (B), “normal” indicates a case where water was administered, and “DSS” indicates cases where DSS-containing water was administered. “non” indicates a case where no compound was administered, and “5-ASA”, “H-31”, and “H-179” indicate cases where the respective compounds were administered. The dose was as follows: 5-ASA, 300 mg/kg/day; H-31, 1 mg/kg/day; H-179, 1 mg/kg/day. As shown in FIG. 4(A), weight loss due to inflammation of the intestine was found in the cases where DSS was administered.

Pin1 protein = assay: Confirmation of Pin1 expression level in the intestinal tract of DSS mice (Example 7); type: in vivo; details: after 7 days of administration
Description: The expression level of Pin1 in the intestinal tract was measured for each mouse subjected to the therapeutic experiment in Example 5.
The present results also support that the compound synthesized in Example 2-7 (H-31) prevents development of ulcerative colitis.

[3] = system: model animals of ulcerative colitis (3% DSS); assay: Therapeutic experiment using model animals of ulcerative colitis 2 (Example 6); type: in vivo, C57BL6 mice; details: DSS mice, 1 mg/kg/day
Description: To C57BL6 mice of 8 weeks old, 3% DSS (dextran sulfate sodium)-containing water or water (control) was administered by allowing the mice to drink it for 7 days. […] On Day 7 after the beginning of the administration, the body weight of each mouse was measured, and the large intestine was removed from the mouse, followed by carrying out histological study. […] In addition, an experiment for measuring the colon length was carried out.

## O=C(O[C@H](Cc1ccc2ccccc2c1)C(=O)O)C1c2ccccc2-c2ccccc21 [Compound H-31]
NASH model mice
  blood ALT (GPT) level: the ALT value decreased
  blood AST (GOT) level: the AST value decreased
  fibrosis of liver tissue (Azan staining): fibrosis of liver tissue was remarkably suppressed
Pin1; compound 100 μM, 10 mM 2-DG, pAMPK immunoblot rated by comparison with C1
  Pin1 inhibitory activity: +++
Pin1; cell-based experiment, 100 μM
  inhibitory activity on Pin1 (stated in words): both have inhibitory activities on Pin1
Colon cancer model mice
  number of colon cancer developed: no significant difference in the number of colon cancer
  tumor area per colon cancer (total tumor area/number of tumors): reduction of the tumor area could be found
[1]; intraperitoneal administration
  body weight change: no significant difference was found
[1]; oral administration
  body weight change: a significant decrease in the body weight change
[2]; Day 7
  tissue damage in the large intestine (stained section): tissue damage in the large intestine was hardly found
[2]; Day 7, vs no compound
  weight loss (body weight as ratio to body weight before administration): the weight loss was significantly smaller
Pin1 protein
  increase in the Pin1 protein level in the intestinal tract: could be significantly ameliorated
[3]
  tissue damage in the large intestine (stained section): tissue damage in the large intestine was hardly found
[3]; vs no compound
  change in the colon length: the change in the colon length was significantly smaller
  weight loss: the weight loss was significantly smaller
